# From patent US11492385B2, “Long-acting co-agonists of the glucagon and GLP-1 receptors” (Merck Sharp & Dohme Corp., priority 2015, dated 2022)
# Starred links: 1 amine or outer side, 2 acyl side, 3 side chain; linkers in the order of their positions; H or OH if unused. Non-standard residues stand in square brackets, D forms with d. Residues, ends and D or L forms follow the SMILES beside them. Groups on a side chain read outwards from the residue. *: point of attachment. C20 diacid = O=C(O)CCCCCCCCCCCCCCCCCCC(=O)*; Phe(4-CH2NH2) = NCc1ccc(C[C@H](N)C(=O)O)cc1; C18 diacid = O=C(O)CCCCCCCCCCCCCCCCC(=O)*; C16 diacid = O=C(O)CCCCCCCCCCCCCCC(=O)*; γGlu = O=C(O)[C@H](CCC(=O)[*:2])N[*:1]; Met(O2) = CS(=O)(=O)CC[C@H](N)C(=O)O; AEEA = NCCOCCOCC(=O)O; Aib = CC(C)(N)C(=O)O
# Assays:
# human GCGR = biological target: T1, human GCGR (Homo sapiens, UniProt P47871); test: cAMP activity assay, cells expressing human GCGR; format: cell-based; conditions: for EC50: cAMP production, cells expressing human GCGR, assay buffer with or without 20% human serum (not stated which), read-out: GCGR EC50 human; for hGCGR/hGLP1R (hTone): ratio of human GCGR EC50 to human GLP1R EC50
# T1 construct: expressed in transfected cells; kept under Blasticidin and Hygromycin selection
# T1 sequence (P47871 26-477): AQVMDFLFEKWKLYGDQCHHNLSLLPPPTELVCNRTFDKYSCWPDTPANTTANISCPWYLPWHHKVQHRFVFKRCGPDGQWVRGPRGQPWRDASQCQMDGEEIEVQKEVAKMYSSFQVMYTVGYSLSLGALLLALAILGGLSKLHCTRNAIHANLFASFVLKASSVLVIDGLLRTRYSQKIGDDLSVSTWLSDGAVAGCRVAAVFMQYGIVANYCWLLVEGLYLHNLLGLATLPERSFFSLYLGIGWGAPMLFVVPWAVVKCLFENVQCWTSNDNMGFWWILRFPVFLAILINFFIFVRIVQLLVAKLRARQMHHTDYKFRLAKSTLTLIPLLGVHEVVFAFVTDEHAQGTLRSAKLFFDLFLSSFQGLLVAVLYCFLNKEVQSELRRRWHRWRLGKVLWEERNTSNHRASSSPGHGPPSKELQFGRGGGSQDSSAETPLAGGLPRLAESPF
# Summary of the method: (§1)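 cAMP production in human GLP1R- or GCGR-expressing cells was read by luminescence after overnight dark incubation at room temperature. Peptides were given as 10-point DMSO dilution series, with native GLP-1 and glucagon as references. Four-parameter logistic fitting gave EC50.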
# human GLP1R = biological target: T2, human GLP1R (Homo sapiens, UniProt P43220); test: cAMP activity assay, cells expressing human GLP1R; format: cell-based; conditions: cAMP production, assay buffer with or without 20% human serum (not stated which)
# T2 construct: expressed in transfected cells; kept under Blasticidin and Hygromycin selection
# T2 sequence (P43220 24-463): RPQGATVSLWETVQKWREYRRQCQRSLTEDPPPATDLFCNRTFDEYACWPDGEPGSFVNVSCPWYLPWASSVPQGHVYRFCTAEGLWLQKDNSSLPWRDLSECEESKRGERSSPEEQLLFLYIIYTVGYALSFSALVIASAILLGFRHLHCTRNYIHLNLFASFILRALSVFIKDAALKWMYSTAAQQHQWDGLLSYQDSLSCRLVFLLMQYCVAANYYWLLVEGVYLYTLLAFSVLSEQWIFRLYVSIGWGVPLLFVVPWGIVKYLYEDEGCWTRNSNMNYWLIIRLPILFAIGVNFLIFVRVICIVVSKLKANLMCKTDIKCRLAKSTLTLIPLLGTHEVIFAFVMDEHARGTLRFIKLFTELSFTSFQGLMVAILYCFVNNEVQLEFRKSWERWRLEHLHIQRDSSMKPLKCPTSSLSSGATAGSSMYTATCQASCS
# Summary of the method: as §1
smiles,measurement,setting,value
CC(C)C[C@H](NC(=O)[C@H](Cc1ccc(O)cc1)NC(=O)[C@H](Cc1ccc(CNC(=O)COCCOCCNC(=O)COCCOCCNC(=O)CC[C@H](NC(=O)CCCCCCCCCCCCCCC(=O)O)C(=O)O)cc1)NC(=O)[C@H](CO)NC(=O)[C@H](Cc1ccc(O)cc1)NC(=O)[C@H](CC(=O)O)NC(=O)[C@H](CO)NC(=O)[C@@H](NC(=O)[C@H](Cc1ccccc1)NC(=O)[C@@H](NC(=O)CNC(=O)[C@H](CCC(N)=O)NC(=O)[C@@H](CO)NC(=O)[C@@H](N)Cc1c[nH]cn1)[C@@H](C)O)[C@@H](C)O)C(=O)N[C@@H](CC(=O)O)C(=O)N[C@@H](CCC(=O)O)C(=O)N[C@@H](CCCNC(=N)N)C(=O)N[C@@H](C)C(=O)N[C@@H](C)C(=O)N[C@@H](CCC(N)=O)C(=O)N[C@@H](CC(=O)O)C(=O)N[C@@H](Cc1ccccc1)C(=O)N[C@H](C(=O)N[C@@H](CCC(N)=O)C(=O)N[C@@H](Cc1c[nH]c2ccccc12)C(=O)N[C@@H](CC(C)C)C(=O)N[C@@H](CCS(C)(=O)=O)C(=O)N[C@@H](CC(=O)O)C(=O)N[C@H](C(N)=O)[C@@H](C)O)C(C)C [compound 24] (H-H[dS]QGTFTSDYS[Phe(4-CH2NH2)]([AEEA-AEEA-γGlu-C16 diacid])YLDERAAQDFVQWL[Met(O2)]DT-NH2; N-terminus assumed),EC50,human GCGR,0.78 nM
same,hGCGR/hGLP1R (hTone),human GCGR,4.76
same,EC50,human GLP1R,0.37 nM
CC(C)C[C@H](NC(=O)[C@H](Cc1ccc(O)cc1)NC(=O)[C@H](CCCCN)NC(=O)[C@H](CO)NC(=O)[C@H](Cc1ccc(O)cc1)NC(=O)[C@H](CC(=O)O)NC(=O)[C@H](CO)NC(=O)[C@@H](NC(=O)[C@H](Cc1ccccc1)NC(=O)[C@@H](NC(=O)CNC(=O)[C@H](CCC(N)=O)NC(=O)C(C)(C)NC(=O)[C@@H](N)Cc1c[nH]cn1)[C@@H](C)O)[C@@H](C)O)C(=O)N[C@@H](CC(=O)O)C(=O)N[C@@H](C)C(=O)N[C@@H](CCCNC(=N)N)C(=O)N[C@@H](C)C(=O)N[C@@H](C)C(=O)N[C@@H](Cc1ccc(CNC(=O)COCCOCCNC(=O)COCCOCCNC(=O)CC[C@H](NC(=O)CCCCCCCCCCCCCCCCC(=O)O)C(=O)O)cc1)C(=O)N[C@@H](CC(=O)O)C(=O)N[C@@H](Cc1ccccc1)C(=O)N[C@H](C(=O)N[C@@H](CCC(N)=O)C(=O)N[C@@H](Cc1c[nH]c2ccccc12)C(=O)N[C@@H](CC(C)C)C(=O)N[C@@H](CC(C)C)C(=O)N[C@@H](CC(=O)O)C(=O)N[C@H](C(N)=O)[C@@H](C)O)C(C)C [compound 31] (H-H[Aib]QGTFTSDYSKYLDARAA[Phe(4-CH2NH2)]([AEEA-AEEA-γGlu-C18 diacid])DFVQWLLDT-NH2),EC50,human GCGR,0.26 nM
same,hGCGR/hGLP1R (hTone),human GCGR,0.70
same,EC50,human GLP1R,0.37 nM
CC(C)C[C@H](NC(=O)[C@H](Cc1ccc(O)cc1)NC(=O)[C@H](CCCCN)NC(=O)[C@H](CO)NC(=O)[C@H](Cc1ccc(O)cc1)NC(=O)[C@H](CC(=O)O)NC(=O)[C@H](CO)NC(=O)[C@@H](NC(=O)[C@H](Cc1ccccc1)NC(=O)[C@@H](NC(=O)CNC(=O)[C@H](CCC(N)=O)NC(=O)C(C)(C)NC(=O)[C@@H](N)Cc1c[nH]cn1)[C@@H](C)O)[C@@H](C)O)C(=O)N[C@@H](CC(=O)O)C(=O)N[C@@H](C)C(=O)N[C@@H](CCCNC(=N)N)C(=O)N[C@@H](C)C(=O)N[C@@H](C)C(=O)N[C@@H](CCC(N)=O)C(=O)N[C@@H](CCCCNC(=O)COCCOCCNC(=O)COCCOCCNC(=O)CC[C@H](NC(=O)CCCCCCCCCCCCCCC(=O)O)C(=O)O)C(=O)N[C@@H](Cc1ccccc1)C(=O)N[C@H](C(=O)N[C@@H](CCC(N)=O)C(=O)N[C@@H](Cc1c[nH]c2ccccc12)C(=O)N[C@@H](CC(C)C)C(=O)N[C@@H](CCS(C)(=O)=O)C(=O)N[C@@H](CC(=O)O)C(=O)N[C@H](C(N)=O)[C@@H](C)O)C(C)C [compound 20] (H-H[Aib]QGTFTSDYSKYLDARAAQK([AEEA-AEEA-γGlu-C16 diacid])FVQWL[Met(O2)]DT-NH2),EC50,human GCGR,0.03 nM
same,hGCGR/hGLP1R (hTone),human GCGR,0.98
same,EC50,human GLP1R,0.03 nM
CC(C)C[C@H](NC(=O)[C@H](Cc1ccc(O)cc1)NC(=O)[C@H](CCCCN)NC(=O)[C@H](CO)NC(=O)[C@H](Cc1ccc(O)cc1)NC(=O)[C@H](CC(=O)O)NC(=O)[C@H](CO)NC(=O)[C@@H](NC(=O)[C@H](Cc1ccccc1)NC(=O)[C@@H](NC(=O)CNC(=O)[C@H](CCC(N)=O)NC(=O)C(C)(C)NC(=O)[C@@H](N)Cc1c[nH]cn1)[C@@H](C)O)[C@@H](C)O)C(=O)N[C@@H](CC(=O)O)C(=O)N[C@@H](C)C(=O)N[C@@H](CCCNC(=N)N)C(=O)N[C@@H](C)C(=O)N[C@@H](C)C(=O)N[C@@H](CCCCNC(=O)COCCOCCNC(=O)COCCOCCNC(=O)CC[C@H](NC(=O)CCCCCCCCCCCCCCC(=O)O)C(=O)O)C(=O)N[C@@H](CC(=O)O)C(=O)N[C@@H](Cc1ccccc1)C(=O)N[C@H](C(=O)N[C@@H](CCC(N)=O)C(=O)N[C@@H](Cc1c[nH]c2ccccc12)C(=O)N[C@@H](CC(C)C)C(=O)N[C@@H](CCS(C)(=O)=O)C(=O)N[C@@H](CC(=O)O)C(=O)N[C@H](C(N)=O)[C@@H](C)O)C(C)C [compound 19] (H-H[Aib]QGTFTSDYSKYLDARAAK([AEEA-AEEA-γGlu-C16 diacid])DFVQWL[Met(O2)]DT-NH2),EC50,human GCGR,0.08 nM
same,hGCGR/hGLP1R (hTone),human GCGR,2.15
same,EC50,human GLP1R,0.04 nM
CC(C)C[C@H](NC(=O)[C@H](Cc1c[nH]c2ccccc12)NC(=O)[C@H](CCCCNC(=O)COCCOCCNC(=O)COCCOCCNC(=O)CC[C@H](NC(=O)CCCCCCCCCCCCCCCCC(=O)O)C(=O)O)NC(=O)[C@@H](NC(=O)[C@H](Cc1ccccc1)NC(=O)[C@H](CC(=O)O)NC(=O)[C@H](CCC(N)=O)NC(=O)[C@H](C)NC(=O)[C@H](C)NC(=O)[C@H](CCCNC(=N)N)NC(=O)C(C)(C)NC(=O)[C@H](CC(=O)O)NC(=O)[C@H](CC(C)C)NC(=O)[C@H](Cc1ccc(O)cc1)NC(=O)[C@H](CCCCN)NC(=O)[C@H](CO)NC(=O)[C@H](Cc1ccc(O)cc1)NC(=O)[C@H](CC(=O)O)NC(=O)[C@H](CO)NC(=O)[C@@H](NC(=O)[C@H](Cc1ccccc1)NC(=O)[C@@H](NC(=O)CNC(=O)[C@H](CCC(N)=O)NC(=O)C(C)(C)NC(=O)[C@@H](N)Cc1c[nH]cn1)[C@@H](C)O)[C@@H](C)O)C(C)C)C(=O)N[C@@H](CCS(C)(=O)=O)C(=O)N[C@@H](CC(=O)O)C(=O)N[C@H](C(N)=O)[C@@H](C)O [compound 68] (H-H[Aib]QGTFTSDYSKYLD[Aib]RAAQDFVK([AEEA-AEEA-γGlu-C18 diacid])WL[Met(O2)]DT-NH2),EC50,human GCGR,0.595 nM
same,hGCGR/hGLP1R (hTone),human GCGR,0.7
same,EC50,human GLP1R,0.866 nM
CC(C)C[C@H](NC(=O)[C@H](Cc1ccc(O)cc1)NC(=O)[C@H](CCCCN)NC(=O)[C@H](CO)NC(=O)[C@H](Cc1ccc(O)cc1)NC(=O)[C@H](CC(=O)O)NC(=O)[C@H](CO)NC(=O)[C@@H](NC(=O)[C@H](Cc1ccccc1)NC(=O)[C@@H](NC(=O)CNC(=O)[C@H](CCC(N)=O)NC(=O)C(C)(C)NC(=O)[C@@H](N)Cc1c[nH]cn1)[C@@H](C)O)[C@@H](C)O)C(=O)N[C@@H](CC(=O)O)C(=O)N[C@@H](C)C(=O)N[C@@H](CCCNC(=N)N)C(=O)N[C@@H](C)C(=O)N[C@@H](C)C(=O)N[C@@H](CCC(N)=O)C(=O)N[C@@H](CCCCNC(=O)COCCOCCNC(=O)COCCOCCNC(=O)CC[C@H](NC(=O)CCCCCCCCCCCCCCCCCCC(=O)O)C(=O)O)C(=O)N[C@@H](Cc1ccccc1)C(=O)N[C@H](C(=O)N[C@@H](CCC(N)=O)C(=O)N[C@@H](Cc1c[nH]c2ccccc12)C(=O)N[C@@H](CC(C)C)C(=O)N[C@@H](CCS(C)(=O)=O)C(=O)N[C@@H](CC(=O)O)C(=O)N[C@H](C(N)=O)[C@@H](C)O)C(C)C [compound 44] (H-H[Aib]QGTFTSDYSKYLDARAAQK([AEEA-AEEA-γGlu-C20 diacid])FVQWL[Met(O2)]DT-NH2; N-terminus assumed),EC50,human GCGR,0.22 nM
same,hGCGR/hGLP1R (hTone),human GCGR,0.92
same,EC50,human GLP1R,0.24 nM
CC(C)C[C@H](NC(=O)[C@H](Cc1ccc(O)cc1)NC(=O)[C@H](CCCCN)NC(=O)[C@H](CO)NC(=O)[C@H](Cc1ccc(O)cc1)NC(=O)[C@H](CC(=O)O)NC(=O)[C@H](CO)NC(=O)[C@@H](NC(=O)[C@H](Cc1ccccc1)NC(=O)[C@@H](NC(=O)CNC(=O)[C@H](CCC(N)=O)NC(=O)[C@@H](CO)NC(=O)[C@@H](N)Cc1c[nH]cn1)[C@@H](C)O)[C@@H](C)O)C(=O)N[C@@H](CC(=O)O)C(=O)N[C@@H](C)C(=O)N[C@@H](CCCNC(=N)N)C(=O)N[C@@H](C)C(=O)N[C@@H](C)C(=O)N[C@@H](CCC(N)=O)C(=O)N[C@@H](Cc1ccc(CNC(=O)COCCOCCNC(=O)COCCOCCNC(=O)CC[C@H](NC(=O)CCCCCCCCCCCCCCC(=O)O)C(=O)O)cc1)C(=O)N[C@@H](Cc1ccccc1)C(=O)N[C@H](C(=O)N[C@@H](CCC(N)=O)C(=O)N[C@@H](Cc1c[nH]c2ccccc12)C(=O)N[C@@H](CC(C)C)C(=O)N[C@@H](CC(C)C)C(=O)N[C@@H](CC(=O)O)C(=O)N[C@H](C(N)=O)[C@@H](C)O)C(C)C [compound 23] (H-H[dS]QGTFTSDYSKYLDARAAQ[Phe(4-CH2NH2)]([AEEA-AEEA-γGlu-C16 diacid])FVQWLLDT-NH2),EC50,human GCGR,0.04 nM
same,hGCGR/hGLP1R (hTone),human GCGR,0.14
same,EC50,human GLP1R,0.27 nM
